# According to patent US4062862A, “5-Benzyl-2-oxazolidone derivatives and a process for producing the same” (Nippon Chemiphar Co., Ltd., priority 1975, dated 1977):
# Experiments:
# pain threshold in mice = assay: Analgetic effect, Pressure Test (pain threshold, tail pressure); type: in vivo, dd Male mice; details: 100 mg/kg oral; for Pain threshold, Mean ± SE, 30 min / Pain threshold, Mean ± SE, 60 min / Pain threshold, Mean ± SE, 90 min / Pain threshold, Mean ± SE, 120 min: *p <0.05, **p <0.01, ***p <0.001
# Procedure: dd Male mice weighing 18 to 22 g (pain threshold ranging within 30 to 50 mmHg), one group consisting of 10 animals, were given orally the test compounds suspended in 0.2% carboxymethylcellulose solution in a dose of 100mg/kg-body weight. Pain threshold were measured at 30, 60, 90 and 120 minutes after the administration of the test compounds while pain reaction occurring by application of pressure on tails of animals was referred to as indication. Aminopyrine was used as active placebo.
# [1] = test system: acetic acid-induced writhing syndrome in mice; assay: Analgetic effect, Acetic Acid-Induced Writhing Method; type: in vivo, dd Male mice; details: 100 mg/kg oral, 30 min before acetic acid; for Writhing syndrome (number within 20 minutes): control 52.1 ± 2.7; for Inhibitory per cent (writhing): vs control
# Procedure: dd Male mice weighing 18 to 22g, one group consisting of 10 animals, were given the intraperitoneal injection of 0.6% acetic acid in a dose of 0.1ml/10g-body weight. The number of writhing syndromes occurring within 20 minutes after injection was observed. Animals were orally given the test compounds suspended in 0.2% carboxymethylcellulose solution 30 minutes before the injection of acetic acid in a dose of 100mg/kg-body weight. Inhibitory percent was estimated in comparison with a control given the 0.2% carboxymethycellulose solution only. Aminopyrine was used as active placebo.
# mice [2] = assay: Muscular relaxing effect, Righting Reflex Test (R.r), oral, mice; type: in vivo, dd Male mice; details: Mus musculus; Table 1; oral; mice; maximum response 15-180 min; Litchfield Wilcoxon
# Procedure: (§1) dd Male mice weighing 18 to 22 g, one group consisting of 10 animals, were orally given the compounds (I) to (V) as indicated below suspended in 0.2% carboxymethylcellulose solution in a dose of 0.25ml/10g-body weight. Mephenesin was used as active placebo.
# [3] = test system: carrageenan-induced edema in rats; assay: Antiinflammatory effect on carrageenan-induced edema; type: in vivo, Wistar male rats; details: Table 5, 200 mg/kg oral
# Procedure: […] One hour after the administration of the test compounds, the hind paw was given a subcutaneous injection of 0.05ml of 0.5% carrageenan saline solution, and volume of the hind paw was measured at 1, 2, 3, 4, 5 and 6 hours after the injection of carrageenan by a volume differential meter. Inhibitory percent was calculated based on the swelling in the control. Phenybutazone was used as active placebo.
# mice [4] = assay: Muscular relaxing effect, Rotarod Method (R.R), oral, mice; type: in vivo, dd Male mice; details: Mus musculus; Table 1; oral; mice; maximum response 15-180 min; Litchfield Wilcoxon
# Procedure: as §1
# Mice were placed on Rotar Load (made by Natsume Seisakusho Co., Ltd.) having a diameter of 3 cm rotating at a speed of 10 rpm and falling (occurring within 3 minutes) was observed.
# mice [5] = assay: Muscular relaxing effect, Corneal Reflex Test (C.r), oral, mice; type: in vivo, dd Male mice; details: Mus musculus; Table 1; oral; mice; maximum response 15-180 min; Litchfield Wilcoxon
# Procedure: as §1
# Corneal reflex was observed by using mandolin wire for 1/4 injection syringe.
# mice [6] = assay: Muscular relaxing effect, Pinna Reflex Test (P.r), oral, mice; type: in vivo, dd Male mice; details: Mus musculus; Table 1; oral; mice; maximum response 15-180 min; Litchfield Wilcoxon
# Procedure: as §1
# Pinna reflex was observed by using mandolin wire for 1/4 injection syringe.
# mice [7] = assay: Muscular relaxing effect, Traction Test (T.T), oral, mice; type: in vivo, dd Male mice; details: Mus musculus; Table 1; oral; mice; maximum response 15-180 min; Litchfield Wilcoxon
# Procedure: as §1
# mice [8] = assay: Muscular relaxing effect, Inclined Plane Test (I.P), oral, mice; type: in vivo, dd Male mice; details: Mus musculus; Table 1; oral; mice; maximum response 15-180 min; Litchfield Wilcoxon
# Procedure: as §1
# Mice were placed on veneer inclined at an angle of 30° and on wire-netting inclined at an angle of 60° of which one division is 5 mm square, and mice sliding down were observed as positive, in comparison with normal behavior.
SMILES,Pain threshold Increase Ratio (pain threshold in mice),"Pain threshold, Mean ± SE, 30 min (pain threshold in mice) [mmHg]","Pain threshold, Mean ± SE, 60 min (pain threshold in mice) [mmHg]","Pain threshold, Mean ± SE, 90 min (pain threshold in mice) [mmHg]","Pain threshold, Mean ± SE, 120 min (pain threshold in mice) [mmHg]",Writhing syndrome (number within 20 minutes) [1],Inhibitory per cent (writhing) [1] [per cent],ED50 (mice [2]) [mg/kg],"Inhibitory per cent, carrageenan-induced edema, 3 hrs. [3] [per cent]","Inhibitory per cent, carrageenan-induced edema, 6 hrs. [3] [per cent]",ED50 (mice [4]) [mg/kg],ED50 (mice [5]) [mg/kg],ED50 (mice [6]) [mg/kg],ED50 (mice [7]) [mg/kg],ED50 (mice [8]) [mg/kg]
"Cc1c(N(C)C)c(=O)n(-c2ccccc2)n1C [Aminopyrine, reference compound]",2.20,75.7 ± 5.4,67.3 ± 5.4,70.8 ± 5.3,53.1 ± 4.5,19.3 ± 6.0,62.9,–,–,–,–,–,–,–,–
"O=C1NCC(Cc2ccc(Cl)cc2)O1 (stereo not drawn) [Compound V, 5-(p-chlorobenzyl)-2-oxazolidone]",1.15,54.6 ± 4.9,51.3 ± 4.3,48.8 ± 2.7,48.2 ± 1.7,45.5 ± 5.3,12.8,750,30.6,22.8,240,750,530,380,520
"O=C1NCC(Cc2ccccc2)O1 (stereo not drawn) [I, 5-benzyl-2-oxazolidone]",1.34,58.2 ± 3.2,57.8 ± 3.2,51.5 ± 2.8,50.7 ± 2.2,42.3 ± 5.9,18.9,1100,49.5,13.0,460,–,800,660,940
"CN1CC(Cc2ccccc2)OC1=O (stereo not drawn) [II, 5-benzyl-3-methyl-2-oxazolidone]",1.36,49.1 ± 4.5,49.2 ± 3.3,43.5 ± 4.7,36.3 ± 3.9,45.9 ± 4.8,11.9,810,33.3,19.7,340,1100,520,500,500
"COc1ccccc1CC1CNC(=O)O1 (stereo not drawn) [III, 5-(o-methoxybenzyl)-2-oxazolidone]",1.20,43.7 ± 4.9,46.5 ± 4.2,42.9 ± 3.1,39.2 ± 3.6,39.1 ± 6.4,24.9,500,32.7,23.3,175,500,380,350,380
"O=C1NCC(Cc2ccccc2Cl)O1 (stereo not drawn) [IV, 5-(o-chlorobenzyl)-2-oxazolidone]",1.89,69.8 ± 4.5,56.7 ± 5.3,53.3 ± 5.5,51.8 ± 6.2,12.8 ± 3.6,75.4,660,16.8,15.9,210,560,< 500,390,330
